The assay relates to BDF1 mice, colon carcinoma 38 sc, T/C %. The experiment in a line: NCI In Vivo Anticancer Drug Screen. Data for tumor model Colon Carcinoma 38 (subcutaneous) in B6D2F1 (BDF1) mice. Summed up: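 T/C readout: treated group (T) measurement over vehicle control group (C) measurement. Endpoint is survival or tumor size in mice bearing a transplanted tumor.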
The mark [1] stands for this setting: endpoint: median tumor weight (est.), dose: 25.0 mg/kg/injection, schedule: Q07DX002 (ip), vehicle: saline with Tween-80, higher = larger tumour.
The mark [2] stands for this setting: endpoint: median tumor weight (est.), dose: 50.0 mg/kg/injection, schedule: Q07DX002 (ip), vehicle: saline with Tween-80, higher = larger tumour.
Where [3] appears, read: endpoint: median tumor weight (est.), dose: 100.0 mg/kg/injection, schedule: Q07DX002 (ip), vehicle: saline with Tween-80, higher = larger tumour.
The mark [4] stands for this setting: endpoint: median tumor weight (est.), dose: 200.0 mg/kg/injection, schedule: Q07DX002 (ip), vehicle: saline with Tween-80, higher = larger tumour.
Where [5] appears, read: endpoint: median tumor weight (est.), dose: 12.5 mg/kg/injection, schedule: Q07DX002 (ip), vehicle: saline with Tween-80, higher = larger tumour.
Setting [6] is: endpoint: median tumor weight (est.), dose: 200.0 mg/kg/injection, schedule: Q07DX002 (ip), vehicle: saline, higher = larger tumour.
[7] abbreviates: endpoint: median tumor weight (est.), dose: 400.0 mg/kg/injection, schedule: Q07DX002 (ip), vehicle: saline, higher = larger tumour.
The mark [8] stands for this setting: endpoint: median tumor weight (est.), dose: 25.0 mg/kg/injection, schedule: Q07DX002 (ip), vehicle: saline, higher = larger tumour.
[9] abbreviates: endpoint: median tumor weight (est.), dose: 50.0 mg/kg/injection, schedule: Q07DX002 (ip), vehicle: saline, higher = larger tumour.
[10] abbreviates: endpoint: median tumor weight (est.), dose: 400.0 mg/kg/injection, schedule: Q07DX002 (ip), vehicle: saline with Tween-80, higher = larger tumour.
The mark [11] stands for this setting: endpoint: median tumor weight (est.), dose: 800.0 mg/kg/injection, schedule: Q07DX002 (ip), vehicle: saline with Tween-80, higher = larger tumour.

Several values for one entry are separate records, joined by “and”; a condition that tells them apart may be missing. Equal entries are not always repeated. Records with an inconclusive call do not appear.

Take `Nc1cc2c3c(cccc3c1)C(=O)N(CCN1CCCC1)C2=O`: the T/C (endpoint: median tumor weight (est.), dose: 15.0 mg/kg/injection, schedule: Q07DX002 (ip), vehicle: saline with Tween-80, higher = larger tumour) is 75 % of control; the T/C under setting [1] is 117 % of control; the T/C (endpoint: median tumor weight (est.), dose: 30.0 mg/kg/injection, schedule: Q07DX002 (ip), vehicle: saline with Tween-80, higher = larger tumour) is 83 % of control; the T/C under setting [2] is 152 % of control; the T/C (endpoint: median tumor weight (est.), dose: 60.0 mg/kg/injection, schedule: Q07DX002 (ip), vehicle: saline with Tween-80, higher = larger tumour) is 73 % of control; the T/C under setting [3] was 90 % of control. Besides, the T/C is 62 % of control (endpoint: median tumor weight (est.), dose: 120.0 mg/kg/injection, schedule: Q07DX002 (ip), vehicle: saline with Tween-80, higher = larger tumour) and 28 % of control under setting [4].

Take `c1ccc2c(c1)nnn1c3cnccc3nc21`: the T/C reads like this: (endpoint: median tumor weight (est.), dose: 3.12 mg/kg/injection, schedule: Q07DX002 (ip), vehicle: saline with Tween-80, higher = larger tumour) 63 % of control and 88 % of control; under setting [1], 82 % of control and 85 % of control.

For the compound `COc1ccc(C(=O)c2no[n+]([O-])c2C(=O)c2ccc(OC)cc2)cc1`, the T/C by setting is: under setting [5], 107 % of control; under setting [2], 99 % of control and 106 % of control.

With `CNC=O`, the T/C under setting [6] is 110 % of control; the T/C under setting [7] was 150 % of control; the T/C (endpoint: median tumor weight (est.), dose: 800.0 mg/kg/injection, schedule: Q07DX002 (ip), vehicle: saline, higher = larger tumour) was 55 % of control; the T/C (endpoint: median tumor weight (est.), dose: 1600.0 mg/kg/injection, schedule: Q07DX002 (ip), vehicle: saline, higher = larger tumour) was 75 % of control.

On to `CC1(C)N=C(N)N=C(N)N1c1ccc(F)c(C(F)(F)F)c1`, for which the T/C runs as follows: (endpoint: median tumor weight (est.), dose: 1.56 mg/kg/injection, schedule: Q07DX002 (ip), vehicle: saline, higher = larger tumour) 87 % of control; (endpoint: median tumor weight (est.), dose: 6.25 mg/kg/injection, schedule: Q07DX002 (ip), vehicle: saline, higher = larger tumour) 81 % of control and 84 % of control; (endpoint: median tumor weight (est.), dose: 12.5 mg/kg/injection, schedule: Q07DX002 (ip), vehicle: saline, higher = larger tumour) 50 % of control and 64 % of control; (endpoint: median tumor weight (est.), dose: 12.5 mg/kg/injection, schedule: Q07DX003 (ip), vehicle: suspension in saline, higher = larger tumour) 169 % of control; under setting [8], 79 % of control and 91 % of control; (endpoint: median tumor weight (est.), dose: 25.0 mg/kg/injection, schedule: Q07DX003 (ip), vehicle: suspension in saline, higher = larger tumour) 161 % of control. The T/C runs as follows: under setting [9], 40 % of control and 60 % of control; (endpoint: median tumor weight (est.), dose: 50.0 mg/kg/injection, schedule: Q07DX003 (ip), vehicle: suspension in saline, higher = larger tumour) 95 % of control; (endpoint: median tumor weight (est.), dose: 100.0 mg/kg/injection, schedule: Q07DX003 (ip), vehicle: suspension in saline, higher = larger tumour) 104 % of control.

For the compound `CCCCOCN(COCCCC)C(C)Cc1ccccc1` (configuration not stated), the T/C is 85 % of control and 106 % of control under setting [1]; 120 % of control and 99 % of control under setting [2].

On to `Cn1cnc([N+](=O)[O-])c1[Se]c1nc(N)nc2nc[nH]c12`, for which the T/C is 62 % of control (endpoint: median tumor weight (est.), dose: 3.12 mg/kg/injection, schedule: Q07DX002 (ip), vehicle: water, higher = larger tumour); 36 % of control (endpoint: median tumor weight (est.), dose: 6.25 mg/kg/injection, schedule: Q07DX002 (ip), vehicle: water, higher = larger tumour); 87 % of control (endpoint: median tumor weight (est.), dose: 12.5 mg/kg/injection, schedule: Q07DX002 (ip), vehicle: water, higher = larger tumour); 73 % of control (endpoint: median tumor weight (est.), dose: 25.0 mg/kg/injection, schedule: Q07DX002 (ip), vehicle: water, higher = larger tumour); 54 % of control (endpoint: median tumor weight (est.), dose: 50.0 mg/kg/injection, schedule: Q07DX002 (ip), vehicle: water, higher = larger tumour); 57 % of control (endpoint: median tumor weight (est.), dose: 100.0 mg/kg/injection, schedule: Q07DX002 (ip), vehicle: water, higher = larger tumour).

As for `O=C(O)/C=C/C(=O)Nc1ccc(Cl)c(Cl)c1`, the T/C was 84 % of control (endpoint: median tumor weight (est.), dose: 12.5 mg/kg/injection, schedule: Q07DX003 (ip), vehicle: Klucel (hydroxypropylcellulose) (HPC), higher = larger tumour); 67 % of control (endpoint: median tumor weight (est.), dose: 25.0 mg/kg/injection, schedule: Q07DX002 (ip), vehicle: Klucel (hydroxypropylcellulose) (HPC), higher = larger tumour); 77 % of control (endpoint: median tumor weight (est.), dose: 50.0 mg/kg/injection, schedule: Q07DX002 (ip), vehicle: Klucel (hydroxypropylcellulose) (HPC), higher = larger tumour); 69 % of control (endpoint: median tumor weight (est.), dose: 50.0 mg/kg/injection, schedule: Q07DX003 (ip), vehicle: Klucel (hydroxypropylcellulose) (HPC), higher = larger tumour); 78 % of control (endpoint: median tumor weight (est.), dose: 100.0 mg/kg/injection, schedule: Q07DX002 (ip), vehicle: Klucel (hydroxypropylcellulose) (HPC), higher = larger tumour); 122 % of control (endpoint: median tumor weight (est.), dose: 100.0 mg/kg/injection, schedule: Q07DX003 (ip), vehicle: Klucel (hydroxypropylcellulose) (HPC), higher = larger tumour). For the same compound, the T/C (endpoint: median tumor weight (est.), dose: 200.0 mg/kg/injection, schedule: Q07DX002 (ip), vehicle: Klucel (hydroxypropylcellulose) (HPC), higher = larger tumour) is 67 % of control.

As to `O=C(Nc1ccc(C2=NCCN2)cc1)c1ccc(C(=O)Nc2ccc(C3=NCCN3)cc2)c(Cl)c1`, the T/C reads like this: (endpoint: median tumor weight (est.), dose: 6.25 mg/kg/injection, schedule: Q07DX002 (ip), vehicle: saline with Tween-80, higher = larger tumour) 117 % of control; under setting [5], 117 % of control; under setting [2], 118 % of control.

Regarding `N/C=N/O`, the T/C by setting is: under setting [8], 124 % of control; under setting [9], 70 % of control; (endpoint: median tumor weight (est.), dose: 100.0 mg/kg/injection, schedule: Q07DX002 (ip), vehicle: saline, higher = larger tumour) 97 % of control; under setting [6], 92 % of control; under setting [7], 56 % of control.

With `COC1CC(NC(=O)N(CCCl)N=O)C(O)C(CO)O1` (configuration not stated), the T/C (endpoint: median tumor weight change, dose: 10.0 mg/kg/injection, schedule: Q04DX003 (oral), vehicle: saline, higher = larger tumour) is 5 % of control.

On to `N=C(N)Sc1ccccn1`, for which the T/C is, setting by setting: (endpoint: median tumor weight (est.), dose: 100.0 mg/kg/injection, schedule: Q07DX003 (ip), vehicle: saline, higher = larger tumour) 94 % of control; (endpoint: median tumor weight (est.), dose: 200.0 mg/kg/injection, schedule: Q07DX003 (ip), vehicle: saline, higher = larger tumour) 81 % of control; (endpoint: median tumor weight (est.), dose: 400.0 mg/kg/injection, schedule: Q07DX003 (ip), vehicle: saline, higher = larger tumour) 88 % of control and 108 % of control.

Turning to `CC1=C(/C=C/C(C)=C/C=C/C(C)=C/CO)C(C)(C)CCC1`, the T/C (endpoint: median tumor weight (est.), dose: 8.0 mg/kg/injection, schedule: Q07DX003 (ip), vehicle: saline with Tween-80, higher = larger tumour) is 113 % of control and 106 % of control; the T/C (endpoint: median tumor weight (est.), dose: 32.0 mg/kg/injection, schedule: Q07DX003 (ip), vehicle: saline with Tween-80, higher = larger tumour) was 194 % of control; the T/C (endpoint: median tumor weight (est.), dose: 64.0 mg/kg/injection, schedule: Q07DX003 (ip), vehicle: saline with Tween-80, higher = larger tumour) is 111 % of control and 122 % of control.

Take `NC(=O)C#CC(N)=O`: the T/C reads like this: (endpoint: median tumor weight (est.), dose: 0.12 mg/kg/injection, schedule: Q07DX002 (ip), vehicle: Klucel (hydroxypropylcellulose) (HPC), higher = larger tumour) 88 % of control; (endpoint: median tumor weight (est.), dose: 0.23 mg/kg/injection, schedule: Q07DX002 (ip), vehicle: Klucel (hydroxypropylcellulose) (HPC), higher = larger tumour) 97 % of control; (endpoint: median tumor weight (est.), dose: 0.45 mg/kg/injection, schedule: Q07DX002 (ip), vehicle: Klucel (hydroxypropylcellulose) (HPC), higher = larger tumour) 85 % of control; (endpoint: median tumor weight (est.), dose: 0.9 mg/kg/injection, schedule: Q07DX002 (ip), vehicle: Klucel (hydroxypropylcellulose) (HPC), higher = larger tumour) 91 % of control.

For `Nc1nc(N)c2cc(S(=O)(=O)c3ccccc3)ccc2n1`, the T/C is 166 % of control (endpoint: median survival time, dose: 57.0 mg/kg/injection, schedule: Q06HX014 (ip), vehicle: saline with Tween-80, higher = longer survival); 205 % of control (endpoint: median survival time, dose: 86.0 mg/kg/injection, schedule: Q06HX014 (ip), vehicle: saline with Tween-80, higher = longer survival); 118 % of control (endpoint: median survival time, dose: 520.0 mg/kg/injection, schedule: Q07DX002 (ip), vehicle: saline with Tween-80, higher = longer survival); 106 % of control under setting [3]; 190 % of control under setting [4]; 169 % of control under setting [10]. For the same compound, the T/C under setting [11] was 21 % of control.

As for `C[C@H](CCC[C@H](C)OS(=O)(=O)c1ccccc1)OS(=O)(=O)c1ccccc1`, the T/C under setting [1] was 89 % of control and 91 % of control; the T/C under setting [2] is 91 % of control and 98 % of control; the T/C under setting [3] was 82 % of control; the T/C under setting [4] was 120 % of control and 100 % of control; the T/C under setting [10] was 118 % of control; the T/C under setting [11] is 116 % of control.

Source of the values: PubChem BioAssay AID212 (DTP/NCI, 2004).
